From PubChem BioAssay AID602275 (The Scripps Research Institute Molecular Screening Center, 2012)
Several values for one entry are separate records, joined by “and”; a condition that tells them apart may be missing. Identical values can stand only once. Activity calls are given as the source filed them. No rule for the calls is given here.

Assays:
NS3h 1b[con1] = assay: HCV NS3 helicase inhibition across viral strains, late-stage follow-up, selectivity assay for HCV NS3 helicase inhibitor project, biochemical, real-time fluorescence, strains con1 and JFH1, set 3 (AID 602275); settings: Recombinant NS3h, real-time fluorescence helicase unwinding
NS3h 2a[JFH1] = assay: as above; settings: Recombinant NS3h, real-time fluorescence helicase unwinding

Row | Structure (SMILES) | IC50 (NS3h 1b[con1]) | IC50 (NS3h 2a[JFH1]) | outcome (NS3h 1b[con1]) | outcome (NS3h 2a[JFH1])
1 | Cc1ccc2nc(-c3ccc4nc(-c5ccc(NCc6ccccc6)cc5)sc4c3)sc2c1S(=O)(=O)O | 11 µM | 13.5 µM |  | 
2 | Cc1ccc2nc(-c3ccc4nc(-c5ccc(NC(=O)c6cc(F)ccc6C(F)(F)F)cc5)sc4c3)sc2c1S(=O)(=O)O | 19 µM | 16.6 µM |  | 
3 | Cc1ccc2nc(-c3ccc4nc(-c5ccc(NC(=O)c6cccc(C(F)(F)F)c6)cc5)sc4c3)sc2c1S(=O)(=O)O | 19.7 µM | 15.9 µM |  | 
4 | Cc1ccc2nc(-c3ccc4nc(-c5ccc(NC(=O)c6cccc(Cl)c6)cc5)sc4c3)sc2c1S(=O)(=O)O | 2.6 µM | 3.9 µM |  | 
5 | O=C(CCCCCCC(=O)Nc1ccc(-c2nc3ccccc3[nH]2)cc1)Nc1ccc(-c2nc3ccccc3[nH]2)cc1 | 7.5 µM | 4.7 µM |  | 
6 | CCOc1ccc2c(NNC(=O)c3cnccn3)c3c(nc2c1)CCCC3 |  | inactive | inactive | 
7 | CCN(CC)c1ccc(-c2nc3ccc(C)c(S(=O)(=O)O)c3s2)cc1 | 32.9 µM | 24.6 µM |  | 
8 | Cc1ccc2nc(-c3ccc4nc(-c5ccc6nc(-c7ccc(N)cc7)sc6c5)sc4c3)sc2c1S(=O)(=O)O (tested in a mixture with another compound) | 12.8 µM | 5.3 µM |  | 
9 | Cc1ccc2nc(-c3ccc4nc(-c5ccc(NC(=O)c6ccc(N)cc6)cc5)sc4c3)sc2c1S(=O)(=O)O | 10.3 µM | 5.3 µM |  | 
10 | Cc1ccc2nc(-c3ccc4nc(-c5ccc6nc(-c7ccc(N)cc7)sc6c5)sc4c3)sc2c1S(=O)(=O)O | 0.9 µM | 0.6 µM |  | 
11 | Cc1ccc2nc(-c3ccc4nc(-c5ccc(NC(=O)c6cccc(C(F)(F)F)c6F)cc5)sc4c3)sc2c1S(=O)(=O)O | 9.2 µM | 8.1 µM |  | 
12 | Cc1ccc2nc(-c3ccc4nc(-c5ccc(NC(=O)c6c(F)cccc6C(F)(F)F)cc5)sc4c3)sc2c1S(=O)(=O)O | 16.8 µM | inactive |  | 
13 | NS(=O)(=O)c1ccc2nc(NC(=O)c3ccc4ncsc4c3)sc2c1 | 37.9 µM and 40.5 µM | 6 µM and 15.7 µM |  | 
14 | CS(=O)(=O)c1ccc2nc(NC(=O)c3ccc4ncsc4c3)sc2c1 | 26.8 µM | 21.3 µM |  | 
15 | Cc1ccc2nc(-c3ccc4nc(-c5ccc(NC(=O)Nc6ccc(Cl)cc6)cc5)sc4c3)sc2c1S(=O)(=O)O | 3.6 µM | 4.4 µM |  | 
16 | Cc1ccc2nc(-c3ccc4nc(NC(=O)c5ccc6ncoc6c5)sc4c3)sc2c1 | inactive | inactive |  | 
17 | Cc1ccc2nc(-c3ccc4nc(-c5ccc(NC(=O)c6cc(C(F)(F)F)cc(C(F)(F)F)c6)cc5)sc4c3)sc2c1S(=O)(=O)O |  | 28.7 µM |  | 
18 | Cc1ccc2nc(-c3ccc4nc(-c5ccc(NC(=O)c6ccc(Cl)c(Cl)c6)cc5)sc4c3)sc2c1S(=O)(=O)O | 3.7 µM | 4.5 µM |  | 
19 | Cc1ccc2nc(-c3ccc(NC(=O)c4ccc(NS(=O)(=O)c5ccccc5)cc4)cc3)sc2c1S(=O)(=O)O |  |  | inactive | inactive
20 | Cc1ccc2nc(-c3ccc(NC(=O)c4ccc(NC(=S)Nc5ccccc5)cc4)cc3)sc2c1S(=O)(=O)O | 28.8 µM | 28.7 µM |  | 
21 | Cc1ccc2nc(-c3ccc4nc(-c5ccc(NC(=O)c6ccccc6)cc5)sc4c3)sc2c1S(=O)(=O)O | 10.7 µM | 4.6 µM |  | 
22 | O=C(Nc1ccc(-c2nc3ccccc3[nH]2)cc1)c1ccc2ncsc2c1 | 25.2 µM | 24.3 µM |  | 
23 | Cc1ccc2nc(-c3ccc4nc(-c5ccc(NC(=O)c6ccc(C(F)(F)F)c(F)c6)cc5)sc4c3)sc2c1S(=O)(=O)O | 17.4 µM | 13 µM |  | 
24 | Cc1ccc2nc(-c3ccc4nc(-c5ccc(NC(=O)c6ccc(F)cc6)cc5)sc4c3)sc2c1S(=O)(=O)O | 5.2 µM | 3 µM |  | 

Row | Structure (SMILES) | IC50 (NS3h 1b[con1]) | IC50 (NS3h 2a[JFH1]) | outcome (NS3h 1b[con1]) | outcome (NS3h 2a[JFH1])
25 | Cc1ccc2nc(-c3ccc4nc(-c5ccc(NC(=O)Nc6ccccc6)cc5)sc4c3)sc2c1S(=O)(=O)O | 4.1 µM | 6 µM |  | 
26 | Cc1ccc2nc(-c3ccc4nc(-c5ccc(NC(=O)c6ccc7ncoc7c6)cc5)sc4c3)sc2c1S(=O)(=O)O | 3.6 µM | 6.4 µM |  | 
27 | Cc1ccc2nc(-c3ccc4nc(-c5ccc(NC(=O)c6ccc(C(C)(C)C)cc6)cc5)sc4c3)sc2c1S(=O)(=O)O | 8.2 µM | 5 µM |  | 
28 | CCOc1ccc2nc(NC(=O)c3ccc4ncsc4c3)sc2c1 |  | inactive | inactive | 
29 | Cc1ccc2nc(-c3ccc4nc(-c5ccc(NS(=O)(=O)c6ccc(C(F)(F)F)cc6)cc5)sc4c3)sc2c1S(=O)(=O)O | 32 µM | 35 µM |  | 
30 | Cc1ccc2nc(-c3ccc(NC(=O)c4ccc(C(F)(F)F)cc4)cc3)sc2c1S(=O)(=O)O |  |  | inactive | inactive
31 | Cc1ccc2nc(-c3ccc(NC(=O)c4ccc(NC(=O)c5ccccc5)cc4)cc3)sc2c1S(=O)(=O)O | inactive | inactive |  | 
32 | CC(=O)Nc1ccc(-c2nc3ccc(-c4nc5ccc(C)c(S(=O)(=O)O)c5s4)cc3s2)cc1 |  |  | inactive | inactive
33 | Cc1ccc2nc(-c3ccc4nc(-c5ccc(NC(=O)c6cccnc6)cc5)sc4c3)sc2c1S(=O)(=O)O |  | 28.3 µM |  | 
34 | Cc1ccc2c(sc(-c3ccc4c(c3)sc(-c3ccc5c(c3)sc(-c3ccc(N(C)C)cc3)[n+]5C)[n+]4C)[n+]2C)c1S(=O)(=O)O (tested in a mixture with another compound) | 23.8 µM | 15.6 µM |  | 
35 | O=C(Nc1nc2ccc(Br)cc2s1)c1ccc2ncsc2c1 |  |  | inactive | inactive
36 | Cc1ccc2nc(-c3ccc(NC(=O)c4ccc(N)cc4)cc3)sc2c1S(=O)(=O)O | inactive | inactive |  | 
37 | Cc1ccc2nc(-c3ccc4nc(-c5ccc(NC(=O)Nc6ccc(F)cc6)cc5)sc4c3)sc2c1S(=O)(=O)O | 7.8 µM | 9.9 µM |  | 
38 | Cc1ccc2nc(-c3ccc(NC(=S)Nc4ccccc4Br)cc3)sc2c1 |  | inactive | inactive | 
39 | COc1ccc(C(=O)Nc2ccc(-c3nc4ccc(-c5nc6ccc(C)c(S(=O)(=O)O)c6s5)cc4s3)cc2)cc1 | 10 µM | 5.4 µM |  | 
40 | Cc1ccc(C(=O)Nc2ccc(-c3nc4ccc(-c5nc6ccc(C)c(S(=O)(=O)O)c6s5)cc4s3)cc2)cc1 | 3.3 µM | 2.5 µM |  | 
41 | Cc1ccc2nc(-c3ccc4nc(-c5ccc(NC(=S)Nc6ccccc6)cc5)sc4c3)sc2c1S(=O)(=O)O | 9.3 µM | 9.6 µM |  | 
42 | Cc1ccc2nc(-c3ccc4nc(-c5ccc(NC(=O)c6cccc7ccccc67)cc5)sc4c3)sc2c1S(=O)(=O)O | 4.5 µM | 3.9 µM |  | 
43 | Cc1ccc2nc(-c3ccc4nc(-c5ccc(NC(=O)c6ccccc6C(F)(F)F)cc5)sc4c3)sc2c1S(=O)(=O)O | 14.1 µM | 24.3 µM |  | 
44 | COc1ccc(S(=O)(=O)Nc2ccc(-c3nc4ccc(-c5nc6ccc(C)c(S(=O)(=O)O)c6s5)cc4s3)cc2)cc1 | 24.4 µM | 13.4 µM |  | 
45 | Cc1ccc2nc(-c3ccc4nc(-c5ccc(NC(=O)c6cc(C(F)(F)F)ccc6F)cc5)sc4c3)sc2c1S(=O)(=O)O | 6.4 µM | 6.7 µM |  | 
46 | Cc1ccc2nc(-c3ccc4nc(-c5ccc(NC(=O)c6ccc(Cl)cc6)cc5)sc4c3)sc2c1S(=O)(=O)O | 3.4 µM | 2.3 µM |  | 
47 | Cc1ccc2nc(-c3ccc4nc(-c5ccc(NC(=O)Nc6ccc(C(F)(F)F)cc6)cc5)sc4c3)sc2c1S(=O)(=O)O | 5.1 µM | 4 µM |  | 
48 | Cc1ccc2nc(-c3ccc4nc(-c5ccc(NC(=O)c6ccncc6)cc5)sc4c3)sc2c1S(=O)(=O)O |  | inactive |  | 
